Results from US20260334439A1, “BCAT2 INHIBITORS” (Agios Pharmaceuticals, Inc., priority 2023, published 2026).

How the values were obtained:
[1] = molecular target: T1, BCAT2 (Homo sapiens, UniProt O15382); assay: BCAT2 in vitro enzyme inhibition assay (hBCAT2, glutamate dehydrogenase/diaphorase/resazurin coupled fluorescence read); assay type: biochemical; settings: hBCAT2, 1 h preincubation at 25° C., one hour reaction; average where tested multiple times
T1 sequence (O15382 28-392): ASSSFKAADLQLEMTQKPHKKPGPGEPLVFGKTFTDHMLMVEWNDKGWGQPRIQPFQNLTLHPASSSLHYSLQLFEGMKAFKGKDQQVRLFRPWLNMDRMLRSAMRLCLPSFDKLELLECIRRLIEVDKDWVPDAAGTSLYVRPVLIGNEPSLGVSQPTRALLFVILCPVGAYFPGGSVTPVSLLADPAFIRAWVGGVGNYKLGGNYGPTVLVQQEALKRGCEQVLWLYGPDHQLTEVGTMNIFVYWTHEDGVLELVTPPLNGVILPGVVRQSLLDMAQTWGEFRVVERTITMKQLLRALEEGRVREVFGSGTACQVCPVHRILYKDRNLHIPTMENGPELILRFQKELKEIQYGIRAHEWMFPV
Procedure, shortened: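 hBCAT2 (0.33 μg/mL in mix) preincubated 1 h at 25 °C with compound (top 100 μM, 3-fold, 10 points) in Tris pH 8.0/NaCl/BSA; substrate mix added (L-leucine, α-ketoglutarate, GDH, NAD, diaphorase, resazurin), quenched with SDS after 1 h, fluorescence Ex 540/Em 590; duplicates, repeat tests averaged.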

[2] = molecular target: T1, BCAT2; assay: BCAT2 cell inhibition using engineered A549 cells (MUT KO, BCAT1 KO; 13C6-KMV formation by LC-MS/MS); assay type: cell-based; design: expressed endogenous BCAT2; endogenous in cells; host or cells: A549 cells, MUT knockout and BCAT1 knockout
From the text: Endogenous Methylmalonyl-CoA Mutase (MUT) and Branched Chain Aminotransferase 1 (BCAT1) in A549 cells was knocked out by CRISPR/CAS9 using the targeting system from TransOMIC Technologies. The following guide sequence was cloned into pCLIP-ALL-EFS-Blast vector to target human MUT: […] (SEQ ID NO: 35). The following guide sequence was cloned into pCLIP-ALL-EFS-Puro vector to target human BCAT1: […] (SEQ ID NO: 36). The resulting plasmids were co-transfected into 293T cells with VSV-G, P-PEX, and Fugene-6. Lentivirus was harvested and A549 cells were first transduced with lentivirus targeting MUT and polybrene. After genetic selection with blasticidin clonal selection was performed and validated via western blot analysis to confirm MUT was no longer expressed. These MUT KO cells were then transduced with lentivirus targeting BCAT1 and polybrene. After selection with puromycin clonal selection was performed and clones were validated via western blot analysis to confirm BCAT1 was no longer expressed in these cells. The result was an engineered A549 cell line that expressed endogenous BCAT2.
For KMV cell assays, on day 1, 25,000 cells/100 μL EMEM (10% FBS) were seeded in each well of a 96-well plate. On day 2, medium was replaced with 50 μL fresh EMEM (10% dialyzed FBS) containing 2× the assay concentration of experimental compound. After 15 minutes, 50 μL of 800 uM ^15N,^13C6-Isoleucine in EMEM (10% dialyzed FBS) was added to each well and incubated for 24 hours. On day 3, 50 μL of media from each well was collected and transferred to another 96-well plate for ^13C6-3-Methyl-2-Oxopentanoic Acid (KMV) analysis via LC-MS/MS. In the remaining assay wells 50 μL of Promega Glo CTG reagent was added and luminescence was measured as a cell viability readout.
For LC-MS/MS analysis 5 μL of cell assay media from each well was transferred to a 96-well plate and 45 μL of ACN:0.1% NaOH (50:50, v/v)^+0.20 nM d8-KMV was added and mixed on a shaker. 15 μL was transferred to a new 96-well plate and 15 μL of 10 mg/mL PFBHA solution was added and mixed on the shaker. The reaction was placed on ice for 30 minutes and quenched with 10 μL of ACN: Acetone (50:50, v/v) on a shaker. The resulting mixture was diluted with 100 μL of ACN:0.1% NaOH (50:50, v/v) on a shaker. 10 μL of sample were injected on the Shimadzu 20AD LC-MS/MS to quantify ^13C6-KMV.
Where a compound was tested multiple times, the average value of the tests is reported.

[3] = read-out: BCAT2 Cell Inhibition (IC50), engineered A549 cells, 24 hours, 13C6-KMV in media, average where tested multiple times

Row | IC50 [1] [nM] | IC50 [2] [nM] | IC50 [2, 3] [nM] | Compound
1 | < 100 | < 100 | – | O=C1c2cc(F)ccc2CN1[C@H]1CCC[C@@H](n2c(-c3c(F)cccc3OC(F)F)nc3cnc(-c4nc[nH]n4)cc32)[C@@H]1O [compound 189]
2 | < 100 | 100 to 500 | – | CN1C[C@H](N2Cc3ccc(F)cc3C2=O)C[C@H](n2c(-c3ccccc3OCCO)nc3ccc(-c4ncccn4)cc32)C1 [Example 243, 6-fluoro-2-((3R,5S)-5-(2-(2-(2-hydroxyethoxy)phenyl)-6-(pyrimidin-2-yl)-1H-benzo[d]imidazol-1-yl)-1-methylpiper-idin-3-yl)isoindolin-1-one]
3 | < 100 | 100 to 500 | – | CC(C)Cc1nc2ccc(-c3ncccn3)cc2n1[C@@H]1CCC[C@H](NC(=O)c2cc(Cl)ccn2)[C@H]1O [Example 219, 4-chloro-N-((1S,2R,3R)-2-hydroxy-3-(2-isobutyl-6-(pyrim-idin-2-yl)-1H-benzo[d]imidazol-1-yl)cyclohexyl)picolinamide]
4 | < 100 | < 100 | – | CO[C@@H]1C[C@H](N2Cc3ccc(F)cc3C2=O)C[C@H](n2c(-c3ccccc3F)nc3cnc(-c4nc[nH]n4)cc32)C1 [Example 195, 6-fluoro-2-((1R,3S,5S)-3-(2-(2-fluorophenyl)-6-(1H-1,2,4-triazol-3-yl)-1H-imidazo[4,5-c]pyridin-1-yl)-5-methoxycyclohexyl)isoindolin-1-one]
5 | < 100 | < 100 | – | Cc1coc(-c2cc3c(cn2)nc(-c2ccccc2OCCO)n3[C@@H]2CCC[C@H](N3Cc4ccc(F)cc4C3=O)C2)n1 [Example 181, 6-fluoro-2-((1S,3R)-3-(2-(2-(2-hydroxyethoxy)phenyl)-6-(4-methyloxazol-2-yl)-1H-imidazo[4,5-c]pyridin-1-yl)cyclohexyl)isoindolin-1-one]
6 | < 100 | < 100 | – | O=C1c2cc(Cl)ccc2CN1[C@H]1CCC[C@@H](n2c(-c3ccccc3F)nc3cnc(-c4nc[nH]n4)cc32)[C@@H]1O [Example 183, 6-chloro-2-((1S,2S,3R)-3-(2-(2-fluorophenyl)-6-(1H-1,2,4-triazol-3-yl)-1H-imidazo[4,5-c]pyridin-1-yl)-2-hydroxycyclohexyl)isoindolin-1-one]
7 | < 100 | < 100 | – | O=C1c2cc(F)ccc2CN1[C@H]1CCC[C@@H](n2c(-c3ccccc3OC(F)F)nc3ccc(-c4nc[nH]n4)c(F)c32)C1 [compound 238]
8 | < 100 | – | > 1000 | CO[C@H]1C[C@H](NC(=O)c2cc(F)ccn2)C[C@H](n2c(-c3ccccc3F)nc3ccc(-c4nc[nH]n4)cc32)C1 [Example 221, 4-fluoro-N-((1S,3R,5R)-3-(2-(2-fluorophenyl)-6-(1H-1,2,4-triazol-3-yl)-1H-benzo[d]imid-azol-1-yl)-5-methoxycyclohex-yl)picolinamide]

More lines, now with the values behind:

Row | Compound | IC50 [1] [nM] | IC50 [2] [nM] | IC50 [2, 3] [nM]
9 | CN1C[C@H](NC(=O)c2cc(Cl)ccn2)C[C@H](n2c(-c3ccccc3F)nc3cnc(-c4nc[nH]n4)cc32)C1 [Example 130, 4-chloro-N-((3R,5S)-5-(2-(2-fluorophenyl)-6-(1H-1,2,4-triazol-3-yl)-1H-imidazo[4,5-c]pyridin-1-yl)-1-methylpiperidin-3-yl)picolinamide] | < 100 | < 100 | –
10 | O=C(N[C@H]1CCC[C@@H](n2c(-c3ccccc3OCCO)nc3cnc(-c4nc[nH]n4)cc32)C1)c1cc(Cl)ccc1F [Example 86, 5-chloro-2-fluoro-N-((1S,3R)-3-(2-(2-(2-hydroxyethoxy)phenyl)-6-(1H-1,2,4-triazol-3-yl)-1H-imidazo[4,5-c]pyridin-1-yl)cyclohexyl)benzamide] | < 100 | 100 to 500 | –
11 | COCCOc1ccc(Cl)cc1C(=O)N[C@H]1CCC[C@@H](n2c(-c3ccccc3F)nc3cnc(-n4nccn4)cc32)C1 [Example 72, 5-chloro-N-((1S,3R)-3-(2-(2-fluorophenyl)-6-(2H-1,2,3-triazol-2-yl)-1H-imidazo[4,5-c]pyridin-1-yl)cyclohexyl)-2-(2-methoxyethoxy)benzamide] | < 100 | < 100 | –
12 | O=C(N[C@H]1CCC[C@@H](n2c(-c3ccccc3F)nc3cnc(-c4nc[nH]n4)cc32)C1)c1cc(Cl)ccc1OCCN1CCCC1 [Example 35, 5-chloro-N-((1S,3R)-3-(2-(2-fluorophenyl)-6-(1H-1,2,4-triazol-3-yl)-1H-imidazo[4,5-c]pyridin-1-yl)cyclohexyl)-2-(2-(pyrrolidin-1-yl)ethoxy)benzamide] | 100 to 500 | 500 to 1000 | –
13 | O=C(N[C@H]1CCC[C@@H](n2c(-c3ccccc3F)nc3cnc(-c4nc[nH]n4)cc32)C1)c1cc(Cl)ccc1O [Example 53, 5-chloro-N-((1S,3R)-3-(2-(2-fluorophenyl)-6-(1H-1,2,4-triazol-3-yl)-1H-imidazo[4,5-c]pyridin-1-yl)cyclohexyl)-2-hydroxybenzamide] | < 100 | < 100 | –
14 | CC(=O)N1C[C@H](NC(=O)c2cc(F)ccn2)C[C@H](n2c(-c3ccccc3F)nc3cnc(-c4nc(C)co4)cc32)C1 [Example 167, N-((3R,5S)-1-acetyl-5-(2-(2-fluorophenyl)-6-(4-methyloxazol-2-yl)-1H-imidazo[4,5-c]pyridin-1-yl)piperidin-3-yl)-4-fluoropicolinamide] | < 100 | < 100 | –
15 | COc1ccc(Cl)cc1C(=O)N[C@H]1CCCC[C@@H](n2c(-c3ccccc3F)nc3cnc(-c4nc[nH]n4)cc32)[C@@H]1O [Example 105, 5-chloro-N-((1S,2R,3R)-3-(2-(2-fluorophenyl)-6-(1H-1,2,4-triazol-3-yl)-1H-imidazo[4,5-c]pyridin-1-yl)-2-hydroxycycloheptyl)-2-methoxybenzamide] | < 100 | < 100 | –
16 | COc1ccc(Cl)cc1C(=O)N[C@@H]1CCCC[C@H](n2c(-c3ccccc3F)nc3cnc(-c4nc[nH]n4)cc32)[C@H]1O [Example 104, 5-chloro-N-((1R,2S,3S)-3-(2-(2-fluorophenyl)-6-(1H-1,2,4-triazol-3-yl)-1H-imidazo[4,5-c]pyridin-1-yl)-2-hydroxycycloheptyl)-2-methoxybenzamide] | 500 to 1000 | – | > 1000
17 | CCOc1ccc(Cl)cc1C(=O)N[C@H]1CCC[C@@H](n2c(-c3ncccc3F)nc3cnc(-c4nc[nH]n4)cc32)C1 [Example 27, 5-chloro-2-ethoxy-N-((1S,3R)-3-(2-(3-fluoropyridin-2-yl)-6-(1H-1,2,4-triazol-3-yl)-1H-imidazo[4,5-c]pyridin-1-yl)cyclohexyl)benzamide] | < 100 | < 100 | –
18 | O=C(N[C@H]1CCC[C@@H](n2c(-c3ccccc3F)nc3cnc(-c4nc[nH]n4)cc32)C1)c1ccccc1F [Example 76, 2-fluoro-N-((1S,3R)-3-(2-(2-fluorophenyl)-6-(1H-1,2,4-triazol-3-yl)-1H-imidazo[4,5-c]pyridin-1-yl)cyclohexyl)benzamide] | < 100 | < 100 | –
19 | O=C(N[C@H]1CCC[C@@H](n2c(-c3ccccc3F)nc3cnc(-c4nc[nH]n4)cc32)C1)c1c(F)cccc1F [Example 74, 2,6-difluoro-N-((1S,3R)-3-(2-(2-fluorophenyl)-6-(1H-1,2,4-triazol-3-yl)-1H-imidazo[4,5-c]pyridin-1-yl)cyclohexyl)benzamide] | < 100 | 100 to 500 | –
